Laboratory results published in patent US9023763B2, “Modification of trehalose-6-phosphate levels in plants” (Isis Innovation Limited, priority 2011, dated 2015).
Where two headings read alike, the source gives them in different places.

Assays:
SnRK1 = SnRK1 assay (Plant Physiol. 2009, 149, 1860-1871); assay type: biochemical
Description: The compounds synthesised in Examples 1 to 4 were tested against the known target for T6P in vitro i.e. SnRK1, using the assay described in Plant Physiol. 2009, 149, 1860-1871.
T6P deprotected by treatment of NB-T6P (Example 1) under deprotection conditions of 125 W/365 nm radiation was included in SnRK1 assays (carried out in accordance with Plant Physiol. 2009, 149, 1860-1871) to determine its inhibition effect and compared to commercially available T6P from Sigma. The results are depicted in FIG. 3.

[1] = In-planta uptake after feeding to roots of seedlings, quantified by HPLC/LCMS; assay type: in vivo, Arabidopsis thaliana; conditions: for Uptake %: proportion of compound fed taken up by the plant, 72 h; for Uptake % / uptake in μg/10 mg of seedling / concentration at 72 h: Arabidopsis seedling; for uptake in μg/10 mg of seedling / concentration at 72 h: protected T6P compounds, after 72 h (3 days), n = 3; for concentration at 72 h: read-out: uptake in μg/10 mg of seedling; for in-planta uptake (in words): after 72 h
Description: Aqueous solutions of each of Examples 1 to 4 were fed to roots of seedlings of Arabidopsis thaliana and after a certain period of time the aerial (shoot) part of seedling was harvested carefully and extracted in H2O:MeOH (1:1) under liquid nitrogen to get crude fresh plant extract. The crude fresh plant extract thus obtained was analysed by mass spec and using HPLC to quantify the amount of compound taken up.
An aqueous solution of NB-T6P (Example 1) was fed to the seedlings, at 1 mM final concentration, near to the root and uptake was monitored in freshly prepared extract after 24 h, 48 h and 72 h using both HPLC and mass technique.
The quantitative analysis of the compounds taken up into the plant was carried out using freshly prepared plant extract by LCMS and summarised data are given in Table 2.

[2] = In vitro deprotection under UV light and sunlight, followed by mass spectrometry/TLC and P NMR; assay type: physicochemical; conditions: for deprotection time: 5 mM in phosphate buffer pH 7.4
Text: Two experimental techniques were chosen for studying the progress of deprotection experiments i.e. i) Mass spectroscopy and TLC (spot), and ii) P NMR. Progress of the reactions was monitored by looking for the disappearance of peak corresponding to protected compounds and appearance of peak corresponding to T6P. The structure of completely uncaged compound i.e. T6P was established by 1D and 2D NMR.
Both experimental techniques were very efficient and reproducible to analyse the deprotection experiments. Five millimolar solutions of Examples 1 to 4 were prepared in phosphate buffer (pH 7.4) and the resulting solution was exposed to different wavelengths of UV light and sunlight to monitor deprotection at different time intervals.
After successful synthesis of protected-G6P(1-OMe) compounds their deprotection was carried out under various wavelength and power of UV light.

Arabidopsis thaliana = assay: Increased starch production in treated plants; assay type: in vivo; conditions: 0.1 mM in the media
Description: Pre-stratified Arabidopsis thaliana seeds were sown in sterile culture on 0.5 mL solid medium (0.5× Murashige and Skoog with Gamborg's vitamins, 0.5% agar) in 0.5 mL tubes pierced with a small hole in the bottom. Tubes were arrayed in polystyrene racks and floated in liquid medium without added sucrose in Phytatrays. Seedlings were grown under 12 hr days under fluorescent lights giving 250 μmo/m^2/s, and 23° C. day/18° C. night temperatures. At 16-20 days after sowing the liquid medium was removed and the tubes were sealed with electrician's tape. All plants were topped up with 0.5×MS medium with no sucrose. Plants were treated with compound example 3, or water by adding example 3 to a final concentration of 0.1 mM in the media. On the third day plants were subjected to growth lights supplemented with UV light (8 W UV bulb) from a Gelman transilluminator (Model 51438) at a distance of 6 cm for 8 h. Plants were allowed to recover for a further day and the aerial parts were harvested at the end of the day, weighed and frozen in liquid nitrogen. Starch was extracted according to published methods, converted to glucose and measured as nmol glucose/gram fresh weight (Nature Protocol 2006, 1, 1342). Results are depicted in FIG. 6.

[3] = Arabidopsis thaliana, in vivo, 1 mM

| SMILES | Uptake % [1] [%] | deprotection time ([2]; 8 W/254 nm) [min] | deprotection time ([2]; 8 W/365 nm) [min] | deprotection time ([2]; 125 W/200-400 nm) [min] | deprotection time ([2]; 125 W/365 nm) [min] | deprotection time ([2]; Sun light) [min] | in-planta uptake (in words) [1] | deprotection time of caged G6P(1-OMe) ([2]; 8 W/254 nm) [h] | deprotection time of caged G6P(1-OMe) ([2]; 8 W/365 nm) [h] | deprotection time of caged G6P(1-OMe) ([2]; 125 W/200-400 nm) [h] | deprotection time of caged G6P(1-OMe) ([2]; 125 W/365 nm) [h] | deprotection time of caged G6P(1-OMe) ([2]; Sun light) [h] | also measured |
| --- | --- | --- | --- | --- | --- | --- | --- | --- | --- | --- | --- | --- | --- |
| O=P(O)(O)OC[C@H]1O[C@H](O[C@H]2O[C@H](CO)[C@@H](O)[C@H](O)[C@H]2O)[C@H](O)[C@@H](O)[C@@H]1O [Example T6P, trehalose-6-phosphate] |  |  |  |  |  |  |  |  |  |  |  |  | SnRK1 inhibition (SnRK1; T6P obtained from deprotection of Example 1 (125 W/365 nm), 0.32 mM, FIG. 3): inhibits SnRK1 in the same way as commercially available T6P; SnRK1 inhibition (SnRK1; in vitro, in duplicate, FIG. 1): shows typical inhibition |
| O=[N+]([O-])c1ccccc1COP(=O)(OCc1ccccc1[N+](=O)[O-])OCC1O[C@H](O[C@H]2OC(CO)[C@@H](O)C(O)C2O)C(O)C(O)[C@@H]1O (some centres unmarked) [Example 1, NB-T6P] | 14 | 240 | 360 | 15 | 30 | 360 |  |  |  |  |  |  | concentration at 24 h ([1]; Arabidopsis thaliana, in vivo, 1 mM final concentration fed near the root, 24 h): 263000 ng/g; concentration at 48 h ([1]; Arabidopsis thaliana, in vivo, 1 mM final concentration fed near the root, 48 h): 605000 ng/g; uptake in μg/10 mg of seedling [1]: 26.39 μg/10 mg of seedling |
| COc1cc(COP(=O)(OCc2cc(OC)c(OC)cc2[N+](=O)[O-])OCC2O[C@H](O[C@H]3OC(CO)[C@@H](O)C(O)C3O)C(O)C(O)[C@@H]2O)c([N+](=O)[O-])cc1OC (some centres unmarked) [Example 2, DMNB-T6P] | 1 | 600 | 600 | 60 | 60 | 480 | taken up by the plant |  |  |  |  |  | concentration at 72 h [1, 3]: 318000 ng/g; concentration at 72 h ([1]; Arabidopsis thaliana, in vivo): 318000 ng/g |
| COc1cc(COP(=O)(O)OCC2O[C@H](O[C@H]3OC(CO)[C@@H](O)C(O)C3O)C(O)C(O)[C@@H]2O)c([N+](=O)[O-])cc1OC (some centres unmarked) [Example 4, Mono-DMNB-T6P] | 1 | 600 | 360 | 45 | 45 | 360 | taken up by the plant |  |  |  |  |  | concentration at 72 h [1, 3]: 360000 ng/g; concentration at 72 h ([1]; Arabidopsis thaliana, in vivo): 360000 ng/g |
| COc1cc(COP(=O)(O)OC[C@H]2O[C@H](OC)[C@H](O)[C@@H](O)[C@@H]2O)c([N+](=O)[O-])cc1OC [Mono-DMNB-G6P(1-OMe)] |  |  |  |  |  |  |  | 10 | 10 | 1.25 | 1.25 | 8 |  |
| COc1cc(COP(=O)(OCc2cc(OC)c(OC)cc2[N+](=O)[O-])OC[C@H]2O[C@H](OC)[C@H](O)[C@@H](O)[C@@H]2O)c([N+](=O)[O-])cc1OC [DMNB-G6P(1-OMe)] |  |  |  |  |  |  |  | 10 | 10 | 2 | 2 | 10 |  |
| COC1OC(COP(=O)(OC(C)c2ccccc2[N+](=O)[O-])OC(C)c2ccccc2[N+](=O)[O-])C(O)C(O)C1O (mixture of isomers) [NPE-G6P(1-OMe)] |  |  |  |  |  |  |  | 2 | 2 | 0.75 | 1.25 | 10 |  |
| CC(OP(=O)(OCC1O[C@H](O[C@H]2OC(CO)[C@@H](O)C(O)C2O)C(O)C(O)[C@@H]1O)OC(C)c1ccccc1[N+](=O)[O-])c1ccccc1[N+](=O)[O-] (some centres unmarked) [Example 3, NPE-T6P] | 18 | 90 | 90 | 10 | 20 | 90 | taken up by the plant |  |  |  |  |  | increase in amount of starch produced relative to concentration of T6P released in-planta (Arabidopsis thaliana; 8 W UV for 8 h): tenfold higher; starch levels compared to plants treated with water only (Arabidopsis thaliana; growth lights plus 8 W UV bulb for 8 h on third day, harvested a day later, FIG. 6): significantly higher starch levels; uptake in μg/10 mg of seedling [1]: 66.0 μg/10 mg of seedling |
| CO[C@H]1O[C@H](COP(=O)(OCc2ccccc2[N+](=O)[O-])OCc2ccccc2[N+](=O)[O-])[C@@H](O)[C@H](O)[C@H]1O [NB-G6P(1-OMe)] |  |  |  |  |  |  |  | 6 | 8 | 0.75 | 1.25 | 8 |  |
